Test results reported in patent US20220009918A1, “Chemical Compounds” (GlaxoSmithKline Intellectual Property Development Limited, priority 2018, published 2022).
“Also recorded” adds a separate entry of the source.

Key:
male C57Bl/6N mice = assay: In vivo functional response to muscle injury (eccentric contraction-induced); parameters: species or system mouse
Protocol: FIG. 1. Effect of different doses of an H-PGDS inhibitor, Example 16, on limb force following eccentric (lengthening) contraction-induced muscle injury in normal C57Bl6/N mice. Doses were administered 10 minutes prior to damage and QD thereafter.
In Vivo Assays for Functional Response to Muscle Injury
Under anesthesia, the right hind limb of a mouse is restrained at the knee and the foot attached to a motorized footplate/force transducer. Needle electrodes are inserted into the upper limb, either side of the sciatic nerve and a current sufficient to elicit a maximal muscle contraction is applied. Muscle tension is produced by moving the footplate to lengthen the plantarflexor muscles while the limb is under maximal stimulation. This is repeated 60 times to fatigue the muscles of the lower limb. Anesthesia, limb immobilization and limb stimulation are then repeated at regular intervals to measure maximal isometric force in the recovering limb. 7 to 9 animals are tested for each test condition.

[1] = test system: prostaglandin D2 generation following 48/80-induced mast cell degranulation; assay: In vivo mast cell activation: compound 48/80 challenge, peritoneal lavage PGD2 by LC/MS/MS; parameters: species or system mouse; details: normal C57Bl6/N mice, oral 0.01-1.0 mg/kg ~1 hour prior to 48/80 (i.p.), lavage 7 minutes afterwards
Protocol: In Vivo Mast Cell Activation
Mice were randomized by body weight into 8 groups (n=8): Vehicle (0.5% HPML with 0.1% Tween80)+phosphate buffered saline (PBS), vehicle+compound 48/80 (0.75 mg/mL) and compound 48/80+Example 16 at various doses ranging from 0.01 mg/kg to 1.0 mg/kg.
C57BL mice were dosed orally with vehicle, or Example 16 at 0.01, 0.03, 0.1, 0.3, & 1.0 mg/kg. One hour later, blood samples were withdrawn via tail snip for measurement of drug levels, and mice were then terminally anesthetized with 2% isoflurane and given an intraperitoneal injection of 0.2 mL PBS or compound 48/80 solution (0.75 mg/mL, Sigma), followed by gentle massage of the abdomen. […]
Samples were thawed at room temperature and vortex-mixed. […] The plate was vortex-mixed for 30 seconds at 1000 rpm and analyzed by LC/MS/MS.
The analytical system consisted of a CTC HTS PAL autoinjector (Leap, Carrboro, N.C.), an Agilent 1290 Infinity binary pump and thermostated column compartment (Agilent Technologies, Santa Clara, Calif.) and an AB Sciex QTRAP 5500 mass spectrometer (AB Sciex, Framingham, Mass.). […] The analytes were detected by multiple reaction monitoring (MRM) in negative mode using Turbolon spray with the transitions of m/z 351/271 amu for PGD2/PGE2 and m/z 360/280 amu for PGD2-d9/PGE2-d9. Data were acquired, analyzed and quantified using Analyst software version 1.6.2 (AB Sciex, Framingham, Mass.). […]

CC1(C)C[C@H](NC(=O)c2cnc(-c3cc(F)cc(Cl)c3)s2)C(=O)N1 (single isomer, unassigned) [Example 16]
protection from strength loss (maximal isometric torque) 24 hours after injury (male C57Bl/6N mice; male C57Bl/6N mice, PO immediately prior to eccentric contraction challenge): dose-dependent protection from strength loss | restoration of muscle function after 9 days (male C57Bl/6N mice; male C57Bl/6N mice, repeat dosing (QD) PO, all doses greater than 0.1 mg/kg): full restoration of muscle function | limb force / functional repair following eccentric contraction-induced limb muscle injury (FIG. 1) (male C57Bl/6N mice; normal C57Bl6/N mice, doses 10 minutes prior to damage and QD thereafter): Accelerates Functional Repair | PGD2 generation in peritoneal lavage fluid following compound 48/80 challenge (FIG. 2) [1]: prevents 48/80-induced PGD2 generation; also recorded: Dose-Dependent Reduction in Peritoneal Lavage Fluid PGD2
